The source of these data is US20030186941A1, “Cyclopenteneone derivatives” (priority 1999, published 2003).

Molecules are shown by their SMILES. Read-outs that look alike come from different tables or passages of the source.

Series [1] has as its system parainfluenza Sendai virus (SV). Kind of series: microbe, parasite or virus in culture. The settings on record: for inhibition of Sendai virus replication: 37RC cells, virus yield at 24 hours after infection; for IC50: Respirovirus muris. The class given is cell-based.
Series [2] concerns the target T1, NF-κB (Homo sapiens, UniProt Q04206). Kind of series: EMSA of NF-κB DNA-binding activity in TPA-stimulated Jurkat T cells. The class given is cell-based. Details: endogenous in cells; host or cells: Jurkat T cells (human lymphoblastoid), TPA-stimulated; whole-cell extracts. The settings on record: test compound 1 hour then TPA 25 ng/ml, extracts after 3 hours. On the procedure:
Methods: Human lymphoblastoid Jurkat T cells were grown at 37° C. in a 5% CO2 atmosphere in RPM1 1640 medium (GIBCO BRL, Gaithersburg, Md.) supplemented with 10% fetal calf serum (FCS, Hyclone Europe Ltd, UK) 2 mM glutamine and antibiotics according to the method described by A. Rossi et al. (Proc. Natl. Acad. Sci. USA 94: 746-750, 1997). The test compounds were stored as a 100% ethanolic stock solution (100 mM) or in DMSO (100 mM and diluted to the appropriate concentration in culture medium at the time of use. Cells were treated with different concentrations of test compound for 1 hour and then stimulated with 12-O-tetradecanoylphorbol-13-acetate (TPA, 25 ng/ml), which is a strong inducer of NF-κB. Control cells received an equal amount of control diluent. After 3 hours whole-cell extracts were prepared and subjected to analysis of DNA-binding activity by EMSA (Electrophoretic Mobility Shift Assay) for detection of HSF or NF-κB activation, according to the method described by A. Rossi et al. (Proc. Natl. Acad. Sci. USA 94: 746-750, 1997).
Specificity of protein-DNA complexes was verified by immunoreactivity with polyclonal antibodies specific for p65 (Rel A) or for HSF-1, for NF-κB and HSF respectively. Quantitative evaluation of NF-κB- and HSF-DNA complex formation was determined by Molecular Dynamics Phosphorlmager (MDP) analysis and was expressed in arbitrary units, as described in A. Rossi et al.(J. Biol. Chem. 273: 16446-16452, 1998). The results from representative experiments are shown in FIGS. 1(b), 2(b), 3(b), 4(b), 5(b), 6 and 7(b) for compounds CTC-31, CTC-32, CTC-33, CTC-34, CTC-35, CTC-36 and CTC-45, as identified above.
(Mobility shift assays separate free from complexed probe on a gel.)

For series [3], the system named is 37RC cells. Kind of series: Toxicity to uninfected 37RC cells, determined visually by microscopy. The class given is cell-based, Monkey.
The target in series [4] is T1, NF-κB. Particulars: at a concentration of 125-500 μM; cited from earlier work.
For another series, the target named is T2, HSF1 (Homo sapiens, UniProt Q00613).
T2 sequence (Q00613 1-529): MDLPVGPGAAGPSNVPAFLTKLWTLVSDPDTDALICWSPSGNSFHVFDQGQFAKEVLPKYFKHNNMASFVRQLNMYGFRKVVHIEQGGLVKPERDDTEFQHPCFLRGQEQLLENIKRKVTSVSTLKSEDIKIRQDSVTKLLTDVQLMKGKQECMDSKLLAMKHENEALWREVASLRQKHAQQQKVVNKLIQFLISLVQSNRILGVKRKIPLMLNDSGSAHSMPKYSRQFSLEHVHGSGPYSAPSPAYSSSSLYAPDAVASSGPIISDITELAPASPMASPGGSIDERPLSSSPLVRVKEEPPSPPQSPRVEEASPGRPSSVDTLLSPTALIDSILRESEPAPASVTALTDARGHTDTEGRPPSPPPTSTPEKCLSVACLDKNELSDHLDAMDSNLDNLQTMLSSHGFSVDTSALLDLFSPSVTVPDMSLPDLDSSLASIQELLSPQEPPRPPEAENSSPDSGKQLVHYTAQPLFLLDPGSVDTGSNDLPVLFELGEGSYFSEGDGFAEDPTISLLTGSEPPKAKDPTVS
Particulars: at a concentration of 125-500 μM; cited from earlier work.

For series [5] the following is noted: anaesthetized rat, intravenous infusion, doses from 30 μg/kg/min; cited from earlier work.
For the next series, the system named is A549 cells. Kind of series: MTT cell viability assay, uninfected A549 cells. The class given is cell-based, Human. The settings on record: 24 hours. On the procedure:
(§1) Cell viability was determined by the 3-(4,5-dimethylthiazol-2-yl)-2,5-diphenyltetrazolium bromide MIT) assay. Uninfected A549 (7.5×10^4 cells/well in 96 well plates) or 37RC cells (2.5×10^4 cells/well in 96 well plates) were treated with different concentrations of CTC35 or ethanol diluent for 24 hours. After this time, […] of a 0.5% MIT solution in PBS was added to the monolayers and the mixture was incubated for 2 h at 37° C. Reduced MTT (formazan) was extracted from cells by adding 100 μl of acidic isopropanol containing 10% Triton X-100, and formazan absorbance was measured in an ELISA microplate reader at two different wavelengths (540 and 690 nm).
Background: Tetrazolium dyes change colour on reduction, which living cells bring about.

For series [6], the system named is Herpes simplex virus type one (HSV-1), strain F. The series is described as follows: HSV-1 replication in Hep-2 cells, virus titre by CPE 50% assay on VERO cells. The class given is cell-based, Herpes simplex virus type 1. Particulars: Human alphaherpesvirus 1, HEp-2, 24 h, read-out: ID50 (50% inhibitory dose/concentration), HSV-1 virus replication. On the procedure: Methods: Human Hep-2 laryngeal carcinoma cells and monkey VERO cells were grown at 37° C. under the conditions described in Example 9 for T cells. Cell viability was determined by dye exclusion technique or by 3-(4,5-dimethylthiazol-2-yl)-2,5-diphenyl-tetrazolium bromide (MTT, Sigma Chemical Co.) to MTT formazan assay, as described by F. Denizot and R. Lang (J. Immunol. Methods 89: 271-277, 1986). Herpes simplex virus type one (HSV-1), strain F grown in VERO cells, was used at a multiplicity of infection of 10 plaque forming units (PFU) per cell. Confluent Hep-2 cell monolayers were infected with HSV-1 for 1 h at 37° C. After this time, virus inocula were removed and cells incubated in RPMI 1640 medium containing 2% FCS. Different concentrations of CTC-35 were added to the culture after the 1 h adsorption period, and maintained in the medium for the duration of the experiment. […] HSV-1 virus titres were determined 24 hours after infection by cytopathic effect 50% (CPE 50%) assay on confluent VERO cells monolayers in 96-well tissue culture plates (six dilutions for each sample, eight wells for each dilution), as described by F. Pica et al. (Antiviral Res. 20: 193-208, 1993). The dilution that gives 50% cytopathic effect were determined by the interpolating procedure of Reed and Muensch, as described by E. Rodriguez-Boulan Methods Enzymol. 98: 486-501, 1983).

For series [7], the system named is 37RC cells. The series is described as follows: MTT cell viability assay, uninfected 37RC cells. The class given is cell-based, Monkey. Particulars: 24 hours. On the procedure:
as §1

The mark [8] stands for this setting: Sendai virus in 37RC cells, at 24 hours, read-out: ID50 (the source's name).

T1 sequence (Q04206 whole entry): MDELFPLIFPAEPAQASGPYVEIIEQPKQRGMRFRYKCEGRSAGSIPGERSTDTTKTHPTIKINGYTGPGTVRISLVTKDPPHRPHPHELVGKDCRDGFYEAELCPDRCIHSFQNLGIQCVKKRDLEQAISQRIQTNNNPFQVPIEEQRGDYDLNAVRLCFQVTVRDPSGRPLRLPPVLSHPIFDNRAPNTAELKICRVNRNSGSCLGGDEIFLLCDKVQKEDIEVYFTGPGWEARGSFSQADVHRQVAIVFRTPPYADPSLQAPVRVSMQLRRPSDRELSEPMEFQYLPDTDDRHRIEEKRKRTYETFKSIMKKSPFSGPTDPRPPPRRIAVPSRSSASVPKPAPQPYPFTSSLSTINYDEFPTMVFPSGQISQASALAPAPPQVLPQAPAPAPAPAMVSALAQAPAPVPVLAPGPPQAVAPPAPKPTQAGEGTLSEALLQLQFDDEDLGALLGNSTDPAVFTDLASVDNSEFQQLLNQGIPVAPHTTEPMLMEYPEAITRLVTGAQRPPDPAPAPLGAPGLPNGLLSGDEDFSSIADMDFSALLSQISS
T1 sequence (P19838 1-433 partner limits assumed): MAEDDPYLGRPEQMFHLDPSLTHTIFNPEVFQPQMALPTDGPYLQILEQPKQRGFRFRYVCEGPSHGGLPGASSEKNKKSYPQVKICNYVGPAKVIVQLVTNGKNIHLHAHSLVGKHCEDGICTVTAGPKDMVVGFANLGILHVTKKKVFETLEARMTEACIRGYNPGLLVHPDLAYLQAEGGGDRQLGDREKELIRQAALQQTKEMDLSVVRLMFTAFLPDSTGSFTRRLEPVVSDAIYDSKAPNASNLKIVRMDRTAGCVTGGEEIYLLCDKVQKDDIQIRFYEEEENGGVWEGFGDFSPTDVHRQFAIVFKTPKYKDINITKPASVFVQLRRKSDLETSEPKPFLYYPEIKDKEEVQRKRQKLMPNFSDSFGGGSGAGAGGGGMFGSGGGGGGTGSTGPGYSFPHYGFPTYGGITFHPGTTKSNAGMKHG

For the molecule `CCC/C=C1/C(=O)C=CC1O[Si](C)(C)C(C)(C)C` (stereo not drawn) [CTC-45, butyldimethylsilyloxy-5-[but-1-ene]-cyclopent-2-ene-1-one], in [1], the “inhibition of Sendai virus replication” value is on record as “potent inhibitors of Sendai virus replication”. Further, the IC50 in series [1] (24 h, read-out: ID50) was 3000 nM. In addition, the “inhibition of NF-κB (NF-κB-DNA complex formation, EMSA)” value (from here on “inhibition of NF-κB”) at NF-κB [2] is on record as “potent inhibitors of NF-κB”. In addition, the “TD100 (concentration 100% toxic to uninfected cells)” value in the series on 37RC cells [3] was 50 µM.

In the case of `O=C1C=CCC1` [cyclopent-2-en-1-one], the “block of NF-κB activation by chemical or physiological inducers” value on NF-κB [4] is “able to block NF-κB activation”. Further, the “activation of HSF1” value on HSF1 is listed as “able to activate HSF1”.

`CCCCC[C@H](O)/C=C/[C@H]1C=CC(=O)[C@@H]1CCCCCCC(=O)O` [Prostaglandin A1]: in series [5], the “effect on blood pressure” value is reported as “dose-dependant falls in blood pressure”.

Take `CC(C)/C=C1/C(=O)C=CC1O[Si](C)(C)C(C)(C)C` (stereo not drawn) [CTC-36]: the “inhibition of NF-κB” value at NF-κB [2] was “potent inhibitors of NF-κB”.

Take `CCCCC[C@H](O)/C=C/[C@H]1[C@H](O)CC(=O)[C@@H]1CCCCCCC(=O)O` [Prostaglandin E1]: the “effect on blood pressure” value in series [5] is “dose-dependant falls in blood pressure”.

Take `CC/C=C1/C(=O)C=CC1O[Si](C)(C)C(C)(C)C` (stereo not drawn) [CTC-31, 4-tert.butyldimethylsilyloxy-5-(prop-1-ene)-cyclopent-2-ene-1-one]: the “inhibition of Sendai virus replication” value in [1] is reported as “potent inhibitors of Sendai virus replication”. In addition, in [1] (24 h, read-out: ID50), the IC50 was found to be 1000 nM. Besides, the “inhibition of NF-κB” value on NF-κB [2] is on record as “potent inhibitors of NF-κB”. In addition, in the series with 37RC cells [3], the “TD100 (concentration 100% toxic to uninfected cells)” value was determined as 50 µM.

On to `CC(C)(C)[Si](C)(C)OC1C=CC(=O)/C1=C/c1ccccc1` (stereo not drawn) [CTC-33, 5-benzylidene-4-[(tert-butyldimethylsilyl)oxy]-2-cyclopentene-1-one], for which the “inhibition of Sendai virus replication” value in series [1] was “potent inhibitors of Sendai virus replication”. Moreover, the IC50 in series [1] (setting [8]) was 1500 nM. Further, the “inhibition of NF-κB” value at NF-κB [2] is listed as “potent inhibitors of NF-κB”. For the same molecule, the “TD100 (concentration 100% toxic to uninfected cells)” value with 37RC cells [3] came out at 50 µM.

Regarding `CC(C)(C)[Si](C)(C)OC1C=CC(=O)/C1=C/c1ccccn1` (stereo not drawn) [CTC-32, 4-tert.butyldimethylsilyloxy-5-[methylene-(2-pyridyl)]-cyclopent-2-ene-1-one], the IC50 in [1] (24 h, read-out: ID50) worked out at 2000 nM. Moreover, the “TD100 (concentration 100% toxic to uninfected cells)” value in the series with 37RC cells [3] is 10 µM.

For `CCCCCCC/C=C1/C(=O)C=CC1O[Si](C)(C)C(C)(C)C` (stereo not drawn) [CTC-34, 4-tert.butyldimethylsilyloxy-5-(oct-1-ene)-cyclopent-2-ene-1-one], the “inhibition of Sendai virus replication” value in [1] was “potent inhibitors of Sendai virus replication”. Besides, the IC50 in series [1] (24 h, read-out: ID50) came out at 3000 nM. For the same molecule, the “inhibition of NF-κB” value at NF-κB [2] is “potent inhibitors of NF-κB”. For the same molecule, in the series with 37RC cells [3], the “TD100 (concentration 100% toxic to uninfected cells)” value amounted to 50 µM.

Regarding `CC(C)/C=C1\C(=O)C=CC1O[Si](C)(C)C(C)(C)C` (stereo not drawn) [CTC-35], the “LD50 (Lethal dose/concentration 50%)” value in the series on A549 cells worked out at 90 µM; in the series on 37RC cells [7], 30 µM. The results for the IC50 in series [6] and in series [1] (setting [8]) were 1510 nM and 400 nM, respectively. Moreover, the “inhibition of Sendai virus replication” value in series [1] is reported as “potent inhibitors of Sendai virus replication”. Further, on NF-κB [2], the “inhibition of NF-κB” value is given as “potent inhibitors of NF-κB”. Moreover, in the series on 37RC cells [3], the “TD100 (concentration 100% toxic to uninfected cells)” value was determined as 50 µM.
